In ChEMBL document CHEMBL4190187, “Discovery of pyrazolopyrimidine derivatives as novel inhibitors of ataxia telangiectasia and rad3 related protein (ATR)” (Bioorg Med Chem Lett, 2017):
Values joined by “and” are separate entries in the source; they are usually repeats but may differ in a detail not shown here. Equal entries are not always repeated.

Experiments:
[1] = target: Serine/threonine-protein kinase ATR (Homo sapiens, UniProt Q13535); experiment: Inhibition of human recombinant FLAG-tagged full length ATR expressed in mammalian cell line co-expressing human recombinant cMyc-tagged full length ATRIP
Sequence of Serine/threonine-protein kinase ATR (Q13535 whole entry): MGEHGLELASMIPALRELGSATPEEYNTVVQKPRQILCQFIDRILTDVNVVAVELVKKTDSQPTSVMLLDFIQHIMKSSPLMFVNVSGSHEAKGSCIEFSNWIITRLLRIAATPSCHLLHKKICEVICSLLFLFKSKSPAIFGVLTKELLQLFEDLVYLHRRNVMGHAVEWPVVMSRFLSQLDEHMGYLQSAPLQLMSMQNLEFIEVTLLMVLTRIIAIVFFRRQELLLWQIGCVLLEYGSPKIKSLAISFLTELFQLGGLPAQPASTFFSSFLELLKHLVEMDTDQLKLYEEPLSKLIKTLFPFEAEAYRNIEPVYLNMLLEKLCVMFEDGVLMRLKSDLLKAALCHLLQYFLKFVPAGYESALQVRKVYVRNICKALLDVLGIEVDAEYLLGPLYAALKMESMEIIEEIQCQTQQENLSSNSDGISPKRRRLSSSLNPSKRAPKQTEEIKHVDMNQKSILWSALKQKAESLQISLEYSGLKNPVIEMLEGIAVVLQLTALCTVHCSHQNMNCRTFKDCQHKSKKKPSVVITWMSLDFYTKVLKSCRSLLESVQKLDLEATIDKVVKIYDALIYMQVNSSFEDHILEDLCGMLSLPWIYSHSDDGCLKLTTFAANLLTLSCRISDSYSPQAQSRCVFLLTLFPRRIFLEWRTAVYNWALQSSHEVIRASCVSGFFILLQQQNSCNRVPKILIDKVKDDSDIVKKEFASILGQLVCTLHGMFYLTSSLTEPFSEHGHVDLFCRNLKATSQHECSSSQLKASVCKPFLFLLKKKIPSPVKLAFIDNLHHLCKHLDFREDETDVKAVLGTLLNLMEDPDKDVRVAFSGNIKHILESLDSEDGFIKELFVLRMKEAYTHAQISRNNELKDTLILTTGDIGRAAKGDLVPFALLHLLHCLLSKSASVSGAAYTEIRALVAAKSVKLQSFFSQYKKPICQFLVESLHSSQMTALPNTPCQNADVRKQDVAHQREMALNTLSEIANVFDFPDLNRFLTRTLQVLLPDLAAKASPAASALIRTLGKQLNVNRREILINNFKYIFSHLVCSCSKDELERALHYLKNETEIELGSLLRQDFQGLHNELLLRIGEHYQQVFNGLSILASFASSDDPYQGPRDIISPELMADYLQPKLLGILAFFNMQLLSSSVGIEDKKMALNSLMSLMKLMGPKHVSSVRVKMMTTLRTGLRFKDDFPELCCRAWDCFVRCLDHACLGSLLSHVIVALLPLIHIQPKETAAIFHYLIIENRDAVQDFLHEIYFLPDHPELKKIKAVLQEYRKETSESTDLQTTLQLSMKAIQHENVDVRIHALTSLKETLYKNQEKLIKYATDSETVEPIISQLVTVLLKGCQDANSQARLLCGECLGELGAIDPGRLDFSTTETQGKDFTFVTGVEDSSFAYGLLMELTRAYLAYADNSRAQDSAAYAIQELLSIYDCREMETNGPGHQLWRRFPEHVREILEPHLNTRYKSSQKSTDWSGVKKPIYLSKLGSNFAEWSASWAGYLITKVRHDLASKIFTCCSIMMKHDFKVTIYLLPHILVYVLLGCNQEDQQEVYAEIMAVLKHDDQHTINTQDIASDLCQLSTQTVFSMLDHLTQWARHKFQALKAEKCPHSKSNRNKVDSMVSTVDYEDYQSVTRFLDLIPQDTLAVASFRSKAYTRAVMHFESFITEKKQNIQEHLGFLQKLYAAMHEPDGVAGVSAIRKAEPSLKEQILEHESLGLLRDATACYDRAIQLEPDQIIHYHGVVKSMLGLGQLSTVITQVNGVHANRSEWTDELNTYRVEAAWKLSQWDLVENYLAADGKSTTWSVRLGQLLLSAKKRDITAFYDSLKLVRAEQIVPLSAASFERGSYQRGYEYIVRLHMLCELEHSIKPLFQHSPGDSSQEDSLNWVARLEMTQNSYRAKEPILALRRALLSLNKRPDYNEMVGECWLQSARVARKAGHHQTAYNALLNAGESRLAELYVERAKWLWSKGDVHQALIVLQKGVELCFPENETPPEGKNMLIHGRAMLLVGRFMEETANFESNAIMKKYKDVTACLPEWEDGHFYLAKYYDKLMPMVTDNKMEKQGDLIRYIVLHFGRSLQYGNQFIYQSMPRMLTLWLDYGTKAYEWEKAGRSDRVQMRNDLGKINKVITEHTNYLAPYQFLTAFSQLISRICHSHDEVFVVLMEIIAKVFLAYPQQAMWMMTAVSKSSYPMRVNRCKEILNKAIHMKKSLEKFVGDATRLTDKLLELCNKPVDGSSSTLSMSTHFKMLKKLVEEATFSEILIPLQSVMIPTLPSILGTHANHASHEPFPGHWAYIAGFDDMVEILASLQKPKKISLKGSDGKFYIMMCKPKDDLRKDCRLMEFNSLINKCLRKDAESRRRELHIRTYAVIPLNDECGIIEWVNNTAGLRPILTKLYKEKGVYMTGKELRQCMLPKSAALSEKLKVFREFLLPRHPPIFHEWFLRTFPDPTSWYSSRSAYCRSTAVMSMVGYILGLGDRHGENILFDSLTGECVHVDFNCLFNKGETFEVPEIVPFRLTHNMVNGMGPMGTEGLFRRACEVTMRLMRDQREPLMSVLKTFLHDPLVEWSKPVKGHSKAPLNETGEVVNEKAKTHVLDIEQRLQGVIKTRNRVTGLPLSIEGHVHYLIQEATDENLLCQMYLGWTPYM

[2] = target: T1, Tyrosine-protein kinase BTK (Homo sapiens, UniProt Q06187); experiment: Inhibition of BTK (unknown origin)
T1 sequence (Q06187 whole entry, canonical isoform): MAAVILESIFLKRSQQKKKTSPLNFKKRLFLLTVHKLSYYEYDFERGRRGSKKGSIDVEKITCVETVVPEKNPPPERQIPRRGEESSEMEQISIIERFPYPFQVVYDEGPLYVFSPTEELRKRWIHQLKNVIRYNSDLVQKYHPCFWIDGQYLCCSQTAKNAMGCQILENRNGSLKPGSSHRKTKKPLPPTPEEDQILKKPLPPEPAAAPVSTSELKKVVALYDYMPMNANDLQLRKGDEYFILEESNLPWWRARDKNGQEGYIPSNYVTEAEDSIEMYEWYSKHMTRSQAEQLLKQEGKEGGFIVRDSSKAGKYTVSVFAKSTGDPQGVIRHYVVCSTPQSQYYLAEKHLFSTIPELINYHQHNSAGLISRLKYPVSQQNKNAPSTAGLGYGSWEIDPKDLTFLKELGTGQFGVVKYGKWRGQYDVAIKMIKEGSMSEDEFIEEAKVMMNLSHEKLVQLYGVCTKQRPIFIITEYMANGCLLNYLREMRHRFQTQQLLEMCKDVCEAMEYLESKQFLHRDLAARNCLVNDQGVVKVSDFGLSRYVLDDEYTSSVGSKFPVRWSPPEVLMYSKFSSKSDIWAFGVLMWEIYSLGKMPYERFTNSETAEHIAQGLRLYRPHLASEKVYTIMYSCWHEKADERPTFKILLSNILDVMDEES

[3] = target: Phosphatidylinositol 4,5-bisphosphate 3-kinase catalytic subunit delta isoform (Homo sapiens, UniProt O00329); experiment: Inhibition of PI3Kdelta (unknown origin)
Sequence of Phosphatidylinositol 4,5-bisphosphate 3-kinase catalytic subunit delta isoform (O00329 whole entry, canonical isoform): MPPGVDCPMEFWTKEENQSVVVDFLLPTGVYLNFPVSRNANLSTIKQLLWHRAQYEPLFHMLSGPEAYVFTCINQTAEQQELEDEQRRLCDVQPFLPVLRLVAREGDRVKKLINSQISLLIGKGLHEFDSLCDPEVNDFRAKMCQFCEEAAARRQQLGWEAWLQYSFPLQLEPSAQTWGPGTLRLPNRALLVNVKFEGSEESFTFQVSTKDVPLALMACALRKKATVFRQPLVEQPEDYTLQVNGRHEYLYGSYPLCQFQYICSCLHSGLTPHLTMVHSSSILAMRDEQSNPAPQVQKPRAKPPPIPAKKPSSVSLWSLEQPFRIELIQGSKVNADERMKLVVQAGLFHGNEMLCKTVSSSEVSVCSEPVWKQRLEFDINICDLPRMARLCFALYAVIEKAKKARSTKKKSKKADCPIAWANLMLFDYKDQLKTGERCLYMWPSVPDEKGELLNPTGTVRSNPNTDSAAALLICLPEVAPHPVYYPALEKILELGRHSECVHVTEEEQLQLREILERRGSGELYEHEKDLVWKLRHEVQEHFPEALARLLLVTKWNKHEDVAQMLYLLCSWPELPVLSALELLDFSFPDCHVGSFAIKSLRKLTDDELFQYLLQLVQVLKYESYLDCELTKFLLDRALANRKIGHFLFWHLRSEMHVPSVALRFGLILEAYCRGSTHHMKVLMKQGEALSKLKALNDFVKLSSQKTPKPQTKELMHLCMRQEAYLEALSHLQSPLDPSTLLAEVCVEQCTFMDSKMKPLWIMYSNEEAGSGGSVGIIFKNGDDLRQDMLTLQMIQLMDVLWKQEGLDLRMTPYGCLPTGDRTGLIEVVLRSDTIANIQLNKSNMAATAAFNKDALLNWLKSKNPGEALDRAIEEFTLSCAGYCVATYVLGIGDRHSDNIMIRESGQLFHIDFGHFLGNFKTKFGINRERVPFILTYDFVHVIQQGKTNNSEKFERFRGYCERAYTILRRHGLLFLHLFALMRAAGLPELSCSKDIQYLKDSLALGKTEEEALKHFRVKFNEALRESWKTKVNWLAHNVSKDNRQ

[4] = target: T1, Tyrosine-protein kinase BTK; experiment: Inhibition of BTK (unknown origin) at 100 nM
[5] = target: Phosphatidylinositol 4,5-bisphosphate 3-kinase catalytic subunit delta isoform (Homo sapiens) (UniProt O00329); experiment: Inhibition of PI3Kdelta (unknown origin) at 100 nM
Sequence of Phosphatidylinositol 4,5-bisphosphate 3-kinase catalytic subunit delta isoform (Homo sapiens) (O00329 whole entry, canonical isoform): as above

[6] = Metabolic stability in mouse liver microsomes assessed as compound remaining at 1 uM in presence of NADPH as cofactor measured after 30 mins by LC-MS/MS method; type: ADME, microsome; details: read-out: Stability
[7] = Metabolic stability in rat liver microsomes assessed as compound remaining at 1 uM in presence of NADPH as cofactor measured after 30 mins by LC-MS/MS method; type: ADME, microsome; details: read-out: Stability
[8] = Metabolic stability in human liver microsomes assessed as compound remaining at 1 uM in presence of NADPH as cofactor measured after 30 mins by LC-MS/MS method; type: ADME, microsome; details: read-out: Stability

Compound | IC50 [1] | further results
Nc1ncnc2c1c(-c1cnc3[nH]ccc3c1)nn2C1CCc2ccccc2C1 (stereo in doubt; 1') | 0.158 µM | 
Nc1ncnc2c1c(-c1ccc3[nH]ccc3c1)nn2C1CCc2ccccc2C1 (racemic) | 1.59 µM | 
Nc1ncnc2c1c(-c1cnc3[nH]ccc3c1)nn2C1CCCC1 | 1.42 µM | 
Nc1ncnc2c1c(-c1ccc(N3CCCC3)nc1)nn2C1CCc2ccccc2C1 (racemic) | 19.1 µM | 
Nc1nc2c(s1)CC(n1nc(-c3cc(F)c4[nH]ccc4c3)c3c(N)ncnc31)CC2 (configuration not stated) | 2.63 µM | IC50 [2]: 0.022 µM; IC50 [3]: 0.307 µM
Nc1ncnc2c1c(-c1ccc(Br)c(O)c1)nn2C1CCc2ccccc21 (configuration not stated) | 1.86 µM | 
CS(=O)(=O)N1CCC(n2nc(-c3cnc4[nH]ccc4c3)c3c(N)ncnc32)CC1 | 1.32 µM | 
Cn1ccc2cc(-c3nn(C4CCc5ccccc5C4)c4ncnc(N)c34)cnc21 (racemic) | 0.58 µM | 
Nc1nc2c(s1)CC(n1nc(-c3cnc4[nH]ccc4c3)c3c(N)ncnc31)CC2 (configuration not stated) | 0.547 µM and 0.269 µM | 
Nc1ncnc2c1c(-c1ccc(Br)c(O)c1)nn2C1Cc2ccccc2C1 | 3.56 µM | 
Nc1ncnc2c1c(-c1c[nH]c3ncccc13)nn2C1CCc2ccccc2C1 (racemic) | > 30 µM | 
Nc1ncnc2c1c(-c1cnc3[nH]c(=O)ccc3c1)nn2C1CCc2ccccc2C1 (racemic) | 22.4 µM | 
Nc1ncnc2c1c(-c1cnc3[nH]ccc3c1)nn2C1CCc2ccccc2C1 (stereo in doubt; 1) | 0.304 µM | 
Nc1ccnc2c1c(-c1cnc3[nH]ccc3c1)nn2C1CCc2ccccc2C1 (racemic) | > 30 µM | 
Nc1ncnc2c1c(-c1cnc3[nH]ccc3c1)nn2C1CCc2ccccc2C1 (racemic) [listing 1 of 2 here] | 0.212 µM | 
Nc1ncnc2c1c(-c1cnc3cc[nH]c3c1)nn2C1CCc2ccccc2C1 (racemic) | 4.62 µM | 
Nc1ncnc2c1c(-c1cccnc1)nn2C1CCc2ccccc2C1 (racemic) | > 30 µM | 
Nc1ccc(-c2nn(C3CCc4ccccc4C3)c3ncnc(N)c23)cn1 (racemic) | 19.3 µM | 
Nc1ncnc2c1c(-c1cnc3[nH]ccc3c1)nn2C1CCc2ccccc2C1 (racemic) [listing 2 of 2 here] |  | inhibition [4]: 24%; inhibition [5]: 52%
c1ccc2c(c1)CCC(n1nc(-c3cnc4[nH]ccc4c3)c3cncnc31)C2 (racemic) | > 30 µM | 
Nc1ncnc2c1c(-c1cnc3[nH]ccc3c1)nn2C1Cc2ccccc2C1 | 0.654 µM | 
CNCc1ccc(-c2cc(-c3nc(-c4ccc(S(=O)(=O)C(C)C)cc4)cnc3N)on2)cc1 [BERZOSERTIB] |  | remaining at 0.5 h, 1 µM [6]: 77%; remaining at 0.5 h, 1 µM [7]: 80%; remaining at 0.5 h, 1 µM [8]: 71%
